In patent US9289496B2, “Lipid dipeptide and gel” (Nissan Chemical Industries, Ltd., priority 2008, dated 2016):
Entries after “also recorded” stand apart in the source; their conditions may differ. Residues, ends and D or L forms follow the SMILES beside them.

Assays:
[1] = Evaluation of gelation of lipid peptides with pure water; format: physicochemical
Protocol: Each of the lipid peptides synthesized in Examples 1, 6, 7, 8, and 10 was placed in a sample tube. Pure water (without metals and ions) was added so that a solution would have a lipid peptide concentration of 0.25 or 0.5% (w/v) (w means mass (g), and v means volume (mL)). The mixture was heated at 90° C. or more to dissolve the lipid peptide, and then allowed to cool.

[2] = Evaluation of gelation of lipid peptides with phosphate buffer; format: physicochemical
Protocol: Each of the lipid peptides synthesized in Examples 3 to 10 and Example 14 was placed in a sample tube. Each of three phosphate buffers (PBS) (pH=2.6, 7.4, or 10) was added so that a solution would have a lipid peptide concentration of 0.25 or 0.5% (w/v) (conditions A to F). Then, the mixture was heated at 90° C. or more to dissolve the lipid peptide, and then allowed to cool.

[3] = Evaluation of gelation of N-palmitoyl-Gly-His.TFA salt with various solutions; format: physicochemical
Protocol: Each N-palmitoyl-Gly-His trifluoroacetate synthesized in Examples 1 to 3 was placed in a screw tube (Maruemu No. 1, manufactured by Maruemu Corp.). Each of various solutions shown in Table 3 was added so as to have an N-palmitoyl-Gly-His.TFA salt (also called Pal-GH (TFA)) concentration of 0.5 or 1% (w/v). The mixture was heated at 100° C. with a constant temperature heat block (manufactured by Nippon Genetics Co., Ltd.), and then allowed at room temperature.

[4] = Gel sheet formation and stability of gel on water immersion; format: physicochemical; details: 72 hours
Protocol: Into a screw tube (Maruemu No. 3, manufactured by Maruemu Corp.), 3 mg of N-palmitoyl-Gly-His (TFA) prepared in Example 1 was placed, and 0.6 ml of Japanese Pharmacopoeia purified water (Kyoei Pharmaceutical Industries, Ltd.) was added into the screw tube so as to have a concentration of 0.5% (w/v). The whole was heated at 105° C. for 5 minutes, and then allowed to stand at room temperature to prepare a gel of 0.5% N-palmitoyl-Gly-His (TFA).
To the gel, 2 ml of Japanese Pharmacopoeia purified water (Kyoei Pharmaceutical Industries, Ltd.) was further added and sheet formation was observed from a wide view for 72 hours.
Into a screw tube (Maruemu No. 3, manufactured by Maruemu Corp.), 9.1 mg of N-palmitoyl-Gly-His.TFA salt prepared in Example 1 was placed, and 0.91 ml of Japanese Pharmacopoeia purified water (Kyoei Pharmaceutical Industries, Ltd.) and 0.91 ml of glycerin (Junsei Chemical Co., Ltd.) were added into the screw tube so as to have a concentration of 0.5% (w/v). The whole was heated at 105° C. for 5 minutes, and then allowed to stand at room temperature to prepare a gel of 0.5% N-palmitoyl-Gly-His.TFA salt in a glycerin solution.
Into the gel, 2 ml of Japanese Pharmacopoeia purified water (Kyoei Pharmaceutical Industries, Ltd.) was further added and sheet formation was observed from a wide view for 72 hours.
Into a screw tube (Maruemu No. 3, manufactured by Maruemu Corp.), 4.6 mg of N-palmitoyl-Gly-His.TFA salt prepared in Example 1 was placed, and 0.46 ml of glycerin was added into the screw tube so as to have a concentration of 1% (w/v). The whole was heated at 105° C. for 5 minutes, and then allowed to stand at room temperature to prepare a gel of 1% N-palmitoyl-Gly-His.TFA salt in glycerin.
(§1) Each of the 50.4 mg of N-palmitoyl-Gly-His.TFA salt prepared in Examples 1 to 3 was placed into a screw tube (Maruemu No. 7, manufactured by Maruemu Corp.). Into the screw tube, 1 ml of polyethylene glycol 400 (Wako Pure Chemical Industries, Ltd.), 1.5 ml of ethanol, and 8 ml of 70% glycerin (Junsei Chemical Co.) in water were added so as to have an N-palmitoyl-Gly-His TFA salt concentration of 0.5% (w/v). The mixture was heated with a dry bath incubator (manufactured by First Gene) (105° C., for 8 minutes), and then allowed to stand at room temperature to form a gel.
Into the gel, 20 ml of Japanese Pharmacopoeia purified water (Kyoei Pharmaceutical Industries, Ltd.) was further added and whether sheet formation occurred or not was observed from a wide view for 72 hours.
as §1, with “the 52.5” for “the 50.4”, “was added” for “was placed”, “tube, 0.5” for “tube, 1”, “Ltd.), 1” for “Ltd.), 1.5”, “an N-palmitoyl-Gly-His.TFA” for “an N-palmitoyl-Gly-His TFA”
(§2) Each of the 50.2 mg of palmitoyl-Gly-His.TFA salt prepared in Examples 1 to 3 was placed into a screw tube (Maruemu No. 7, manufactured by Maruemu Corp.) together with 104.7 mg of indomethacin and 220 mg of I-menthol. Into the screw tube, 0.5 ml of polyethylene glycol 400 (Wako Pure Chemical Industries, Ltd.), 1.5 ml of ethanol, 8 ml of 70% glycerin (Junsei Chemical Co., Ltd.) in water were added so as to have an N-palmitoyl-Gly-His.TFA salt concentration of 0.5% (w/v). […] The texture of the gel was smooth and cool.
After ascertainment of the gel formation, the gel was allowed to stand at room temperature for 45 days. Then, 20 ml of Japanese Pharmacopoeia purified water (Kyoei Pharmaceutical Industries, Ltd.) was added and sheet formation was observed from a wide view for 72 hours. […]

[5] = Gel formation in glycerin, polyethylene glycol 400 and ethanol medium; format: physicochemical; details: 8 ml 70% glycerin in water
Protocol: as §1
as §1, with “the 52.5” for “the 50.4”, “was added” for “was placed”, “tube, 0.5” for “tube, 1”, “Ltd.), 1” for “Ltd.), 1.5”, “an N-palmitoyl-Gly-His.TFA” for “an N-palmitoyl-Gly-His TFA”
as §2

[6] = background art; cited from earlier work
[7] = acidic region (pH=2.6), concentration 0.25%
[8] = acidic region (pH=2.6), concentration 0.5%
[9] = condition A: phosphate buffer pH = 2.6, 0.5% (w/v)
[10] = condition B: phosphate buffer pH = 2.6, 0.25% (w/v)
[11] = condition C: phosphate buffer pH-7.4, 0.5% (w/v)
[12] = condition D: phosphate buffer pH-7.4, 0.25% (w/v)
[13] = condition E: phosphate buffer pH = 10, 0.5% (w/v)

| SMILES | Gelation ([1]; lipid peptide 0.25% (w/v)) | Gelation ([1]; lipid peptide 0.50% (w/v)) | Gel formation [2, 7] | Gel formation [2, 8] | Gelation [2, 9] | Gelation [2, 10] | Gelation [2, 11] | Gelation [2, 12] | Gelation [2, 13] | other results |
| --- | --- | --- | --- | --- | --- | --- | --- | --- | --- | --- |
| CCCCCCCCCCCCCCCC(=O)NCC(=O)N[C@@H](Cc1c[nH]cn1)C(=O)O.O=C(O)C(F)(F)F [Example 1, N-palmitoyl-Gly-His.TFA salt] (HELM PEPTIDE1{[CCCCCCCCCCCCCCCC(=O)[*:2]].G.H}$$$$V2.0) | ◯ | ◯ | formed gels | formed gels | ◯ | ◯ | ◯ | ◯ | ◯ | Gel state ([3]; 50% 1,3-butanediol aqueous solution, 0.5% (w/v)): White gel; Gel state ([3]; 50% glycerin aqueous solution, 0.5% (w/v)): White gel; Gel state ([3]; 50% liquid paraffin aqueous solution, 0.5% (w/v)): White gel; Gel state ([3]; 50% polyethylene glycol 400 aqueous solution, 0.5% (w/v)): White gel; Gel state ([3]; 50% propylene glycol aqueous solution, 0.5% (w/v)): White gel; Gel state ([3]; 70% glycerin aqueous solution, 0.5% (w/v)): Transparent gel; Gel state ([3]; Glycerin, 1.0% (w/v)): Transparent gel; Gel state ([3]; Polyethylene glycol 400, 1.0% (w/v)): Transparent gel; Gel behaviour on immersion in purified water, sheet formation ([4]; 0.5% (w/v) gel in 0.5 ml polyethylene glycol 400, 1 ml ethanol, 8 ml 70% glycerin, 20 ml water added): not dissolved during water immersion and the formation of a sheet-shaped gel was observed; Gel behaviour on immersion in purified water, sheet formation ([4]; 0.5% (w/v) gel in 1 ml polyethylene glycol 400, 1.5 ml ethanol, 8 ml 70% glycerin, 20 ml water added): not dissolved during water immersion and the formation of a sheet-shaped gel was observed; Gel behaviour on immersion in purified water, sheet formation ([4]; 0.5% (w/v) gel in glycerin solution (0.91 ml water + 0.91 ml glycerin), 2 ml water added): not dissolved during water immersion and the formation of a sheet-shaped gel was observed; Gel behaviour on immersion in purified water, sheet formation ([4]; 0.5% (w/v) gel in purified water, 2 ml water added): not dissolved during water immersion and the formation of a sheet-shaped gel was observed; also recorded: did not dissolve during water immersion and the formation of a sheet-shaped gel was observed; Gel behaviour on immersion in purified water, sheet formation ([4]; 0.5% (w/v) gel including indomethacin and l-menthol, after 45 days at room temperature, 20 ml water added): not dissolved during water immersion and the formation of a sheet-shaped gel was observed; Gel behaviour on immersion in purified water, sheet formation ([4]; 1% (w/v) gel in glycerin, 2 ml water added): not dissolved during water immersion and the formation of a sheet-shaped gel was observed; Gel formation ([5]; 0.5% (w/v) with 104.7 mg indomethacin and 220 mg l-menthol, 0.5 ml polyethylene glycol 400, 1.5 ml ethanol): pale yellow gel; Gel formation ([5]; 0.5% (w/v), 0.5 ml polyethylene glycol 400, 1 ml ethanol): form a gel; Gel formation ([5]; 0.5% (w/v), 1 ml polyethylene glycol 400, 1.5 ml ethanol): form a gel |
| CCCCCCCCCCCC(=O)NCC(=O)N[C@@H](Cc1c[nH]cn1)C(=O)O.O=C(O)C(F)(F)F [Example 6, N-Lauroyl-Gly-His.TFA Salt] (HELM PEPTIDE1{[CCCCCCCCCCCC(=O)[*:2]].G.H}$$$$V2.0) | ◯ | ◯ | formed gels | formed gels | ◯ | ◯ | ◯ | ◯ | ◯ | Gel formation ([2]; basic region (pH=10), concentration 0.25%): formed a gel; Gelation ([2]; condition F: phosphate buffer pH = 10, 0.25% (w/v)): ◯ |
| CCCCCCCCCCCCCCCCCCCCCC(=O)NCC(=O)N[C@@H](Cc1c[nH]cn1)C(=O)O.O=C(O)C(F)(F)F [Example 7, N-Behenoyl-Gly-His.TFA Salt] | ◯ | ◯ | – | formed gels | ◯ | – | ◯ | ◯ | ◯ | – |
| CCCCCCCCCCCCCC(=O)NCC(=O)N[C@@H](Cc1c[nH]cn1)C(=O)O.O=C(O)C(F)(F)F [Example 8, N-Myristoyl-Gly-His.TFA Salt] (HELM PEPTIDE1{[CCCCCCCCCCCCCC(=O)[*:2]].G.H}$$$$V2.0) | ◯ | ◯ | formed gels | formed gels | ◯ | ◯ | ◯ | ◯ | ◯ | – |
| CCCCCCCCCCCCCCCC(=O)N[C@@H](C)C(=O)N[C@@H](Cc1c[nH]cn1)C(=O)O.O=C(O)C(F)(F)F [Example 10, N-Palmitoyl-Ala-His.TFA salt] (HELM PEPTIDE1{[CCCCCCCCCCCCCCCC(=O)[*:2]].A.H}$$$$V2.0) | ◯ | ◯ | formed gels | formed gels | ◯ | ◯ | ◯ | ◯ | ◯ | – |
| CCCCCCCCCCCCCCCC(=O)N[C@H](C(=O)N[C@@H](Cc1c[nH]cn1)C(=O)O)C(C)C.O=C(O)C(F)(F)F [Example 11, N-Palmitoyl-Val-His.TFA Salt] (HELM PEPTIDE1{[CCCCCCCCCCCCCCCC(=O)[*:2]].V.H}$$$$V2.0) | – | – | – | – | – | – | ◯ | ◯ | ◯ | – |
| CCCCCCCCCCCCCCCC(=O)N[C@@H](Cc1c[nH]cn1)C(=O)NCC(=O)O.O=C(O)C(F)(F)F [Example 14, N-Palmitoyl-His-Gly.TFA Salt] (HELM PEPTIDE1{[CCCCCCCCCCCCCCCC(=O)[*:2]].H.G}$$$$V2.0) | – | – | – | – | – | – | ◯ | ◯ | ◯ | – |
| CCCCCCCCCCCCCCCC(=O)NCC(=O)NCC(=O)N[C@@H](Cc1c[nH]cn1)C(=O)O [palmitoyl-Gly-Gly-His] (HELM PEPTIDE1{[CCCCCCCCCCCCCCCC(=O)[*:2]].G.G.H}$$$$V2.0) | – | – | – | – | – | – | – | – | – | gelation properties [6]: has gelation properties |
